# In paper PMC3561402, “Signaling Pathways of ESE-16, an Antimitotic and Anticarbonic Anhydrase Estradiol Analog, in Breast Cancer Cells” (PLoS ONE, 2013):
# Target: T1, carbonic anhydrase II (wild-type CAII) (Homo sapiens, UniProt P00918)
# T1 construct: gene CA2
# Test: […] exchange, membrane inlet mass spectrometry; Henderson tight-binding analysis
# Assay type: biochemical
compound,measurement,value
"CCc1cc2c(cc1OS(N)(=O)=O)CC[C@@H]1[C@@H]2CC[C@]2(C)C=CC[C@@H]12 [ESE-16, 2-ethyl-3-O-sulphamoyl-estra-1,3,5(10)16-tetraene]",Ki,0.569 ± 0.061 µM
